Several values for one entry are separate records, joined by “and”; a condition that tells them apart may be missing. Equal entries are not always repeated.
Tested on: lactating Holstein cows
Assay: Experiment 1: CL regression / circulating P4 after one vs. two 2 mL i.m. cloprostenol sodium injections in Double-Ovsynch
Assay type: in vivo, cattle
Settings: for CL regression, % of cows: quartiles 2, 3 and 4 combined; for circulating P4 concentrations at 56 hours after the first injection: day of final gonadorelin acetate injection, serum, in ng/mL
Procedure: An experiment was conducted to determine the effectiveness of the exogenous administration of hormones for synchronizing the estrous cycles of lactating dairy cattle and resulting pregnancy rates subsequent to FTAI. A total of 373 lactating Holstein cows (172 primiparous, 201 multiparous) were synchronized with a Double-Ovsynch program comprising a first or presynchronization Ovsynch phase followed by a second Ovsynch phase. All animals were synchronized using a GnRH composition (about 100 mcg of gonadorelin acetate per mL, GONAbreed®, Parnell Technologies Pty Ltd, Alexandria, Australia) and a PGF2α analog composition (about 250 mcg of cloprostenol sodium per mL, estroPLAN®, Parnell Technologies Pty Ltd, Alexandria, Australia). The first Ovsynch phase began at about 51 to about 57 days in milk where the cows received a first 1 mL intramuscular injection of a gonadorelin acetate composition. At about 58 to about 64 days in milk, the cows received a first 2 mL intramuscular injection of a cloprostenol sodium composition. At about 61 to about 67 days in milk, the cows received a second 1 mL intramuscular injection of a gonadorelin acetate composition concluding the first Ovsynch phase. The animals were then synchronized with a second Ovsynch phase comprising an Ovsynch-56 protocol beginning at about 68 to about 74 days in milk where the cows received a third 1 mL intramuscular injection of gonadorelin acetate composition. At about 75 to about 81 days in milk, the animals received a second 2 mL intramuscular injection of a cloprostenol sodium composition. At about 77 to about 83 days in milk (about 56 hours after the second injection of a cloprostenol sodium composition), the animals received a fourth 1 mL intramuscular injection of a gonadorelin acetate composition. And at about 78 to about 84 days in milk (about 16 hours after the fourth injection of the gonadorelin acetate composition), the animals receive AI, concluding the second Ovsynch phase. […] The experimental protocol is shown in the diagram of FIG. 2. Blood samples of the cows were taken at the time of the second injection of the cloprostenol sodium composition (at about 72 hours before FTAI) and at the time of the fourth injection of the gonadorelin acetate composition (at about 16 hours before FTAI). Blood samples were collected from the coccygeal vessels into vacuum tubes. Following collection, the blood samples were placed on ice and transported to a laboratory. After clotting (about 16 hours), samples were centrifuged at 3,000 rpm for 20 minutes and serum was isolated into vials, frozen and stored at −20 Celsius until assayed for P4 concentrations. Progesterone was determined directly from serum using a solid phase radioimmunoassay kit (Coat-A-Count, Siemens Healthcare Diagnostics, Los Angeles, Calif.) with no extraction. […] Statistical analyses were performed with SAS (SAS Institute, 2006). Variables with a binomial distribution, such as P/AI and percentage of animals with CL regression, were analyzed by logistic regression using the LOGISTIC procedure. One-tailed comparisons were utilized throughout the study for comparison of the effect of an additional cloprostenol sodium injection on CL regression and animals pregnant to the FTAI. Continuous variables were analyzed using ANOVA with logistic regression utilized to compare the relationship between circulating P4 and the binomial traits. Animals with ≦2.0 ng/mL P4 on day of PGF were removed from the analysis (n=29; 13 primiparous, 16 multiparous) due to lack of synchronization to the double Ovsynch protocol. Therefore, all analyses were done with a total of 344 lactating dairy cows (n=159 primiparous; n=185 multiparous). Statistical differences were considered significant for P≦0.05 and as a tendency for P≦0.15.

[1] = one injection, overall (all cows), P4 <0.5 ng/mL at 56 h
[2] = two injections, Quartile 1, [P4] 2.0-5.4 at first injection
[3] = two injections, overall (all cows), P4 <0.5 ng/mL at 56 h

O=C(O)CCC/C=C\CC1C(O)CC(O)C1/C=C/C(O)COc1cccc(Cl)c1 (stereo not shown) [cloprostenol sodium]
percentage of cows with P4 below 0.2 ng/mL at final GnRH (one injection): 42.0% | percentage of cows with higher P4 (>0.5 ng/mL) at final GnRH (one injection): 17.0% | percentage of cows with lower P4 (0.1 to 0.19) at final GnRH (one injection): 34.7% | CL regression, % (n/n) (one injection, Quartile 1, [P4] 2.0-4.8 at first injection): 66.7% and 66.7 (28/42) % | CL regression, % (n/n) (one injection, Quartile 2, [P4] 4.9-6.7): 84.4 (38/45) % | CL regression, % (n/n) (one injection, Quartile 3, [P4] 6.8-8.7): 95.5 (42/44) % | CL regression, % (n/n) (one injection, Quartile 4, [P4] 8.8-12): 84.4 (38/45) % | % of cows with complete CL regression (one injection, multiparous, P4 <0.5 ng/mL at 56 h): 84.4% (81/96) | % of cows with complete CL regression [1]: 83.0% (146/176) | % of cows with complete CL regression (one injection, primiparous, P4 <0.5 ng/mL at 56 h after first injection): 81.2% (65/80) | CL regression, % of cows (one injection): 88.1% | circulating P4 concentrations at 56 hours after the first injection (single injection): 0.4 ± 0.04 | percentage of cows with P4 below 0.2 ng/mL at final GnRH (two injections): 60.7% | percentage of cows with higher P4 (>0.5 ng/mL) at final GnRH (two injections): 2.4% | percentage of cows with lower P4 (0.1 to 0.19) at final GnRH (two injections): 49.4% | % of cows with complete CL regression (two injections (second 24 h after first), primiparous, P4 <0.5 ng/mL at 56 h): 97.5% (77/79) | CL regression, % (n/n) [2]: 95.1% and 95.1 (39/41) % | CL regression, % (n/n) (two injections, Quartile 2, [P4] 5.5-7.0): 95.6 (43/45) % | CL regression, % (n/n) (two injections, Quartile 3, [P4] 7.1-8.6): 100 (43/43) % | CL regression, % (n/n) (two injections, Quartile 4, [P4] 8.7-12): 97.4 (38/39) % | circulating P4 concentrations at 56 hours after the first injection (two injections): 0.2 ± 0.05 | % of cows with complete CL regression (two injections, multiparous, P4 <0.5 ng/mL at 56 h): 96.7% (86/89) | % of cows with complete CL regression [3]: 97.0% (163/168) | CL regression, % of cows (two injections): 97.6%

prostaglandin F2α [PGF]
% of cows with complete CL regression [1]: 83% | % of cows that did not completely regress the CL (single PGF treatment, all cows): 18% | % of cows with inadequate CL regression (single PGF treatment, greater circulating P4 at time of PGF): 11.9% | % of cows with inadequate CL regression (single PGF treatment, lower P4 (2.0 to 4.8 ng/mL) at time of PGF): 33.3% | CL regression, % (n/n) [2]: 95.1% | % of cows with complete CL regression [3]: 97% | CL regression, % of cows (two injections): 97.6%
